# Reference: patent US20220387342A1, “TRANSDERMAL PATCH” (University of Sunderland, priority 2019, published 2022)
# Where a name gives a salt, the structure may show the parent alone.
# Assays:
# [1] = tertiary aliphatic nitrogen; cited from earlier work
# [2] = test system: bacteria, yeasts and moulds; experiment: Small scale study of microbial growth in naltrexone solutions; conditions: for bacterial colony count: after 3 weeks incubation time; for microbial growth: summary b334
# Protocol: This was also evidenced in a small scale study in which the microbial growth in solutions of naltrexone base and naltrexone hydrochloride were compared to a control after being stored for 25 days at 27° C. […] After 48 hours, the bacterial colony count increased to approximately 10^4 CFU/mL in the control sample and to approximately 10^2 CFU/mL in the NTX base sample. […] After 3 weeks incubation time, the bacterial colony count increased to ˜10^5 CFU/mL on the control sample, ˜10^3 CFU/mL for naltrexone base and ˜10^2 CFU/mL for naltrexone hydrochloride. Thus, a longer incubation time was required for growth of microbial colonies in the medicated samples.
# [3] = cited from earlier work
# [4] = Stability study: drug content of hydrogel films after storage (HPLC), shelf life estimate; type: physicochemical; conditions: 0-6 months, ambient and accelerated
# Protocol: The stability of the transdermal patch of the invention may be investigated over the course of 6 months under ambient (20.9±0.6° C./43±2.5% RH) and accelerated (40° C./75% RH) conditions. The patches are tested at time intervals of 0, 1, 2, 3 and 6 months to determine the extent of any physical, chemical and microbial changes that may have occurred.
# Packaged pouches were either placed under ambient conditions (20.9±0.7° C./46.0±3.1% RH) or under accelerated conditions (40° C./75% RH), for 6 months with intermediate testing at 0, 1, 2, 3 and 6 months according to the protocol in Table 7.
# To quantify the amount of drug present at each time point, hydrogel films were removed from each patch (n=3) at 0, 1, 3 and 6 months and dissolved in 5 mL 80% v/v acetonitrile for 16 hours at 30° C. in an Elmasonic S 30 H sonicating water bath (Elma Schmidbauer, Singen, Germany). After 16 hours, the samples were filtered using 0.2 μm Whatman syringeless filters vials with nylon filter media and polypropylene housing (GE Healthcare UK Ltd., Little Chalfont, Buckinghamshire, UK) and injected in triplicate to the HPLC.
# Based on the drug content of the hydrogels only, a shelf life may be predicted by extrapolating the data and calculating how long it would take to reach 90% of the stated dose. […]
# [5] = Differential scanning calorimetry: drug crystallinity and saturation in PEO films; type: physicochemical; conditions: from plot of enthalpy of fusion against drug concentration, y = 0
# Protocol: Differential scanning calorimetry (DSC) of NTX.base, NTX.HCl, PEO and loaded hydrogel films (irradiated and non-irradiated) may be performed with suitable DSC instruments, such as a DSC Q1000 (TA Instruments, New Castle, Del., USA). The DSC was conditioned for two hours prior to use. Samples (5-10 mg) were accurately weighed using a microbalance (Mettler-Toledo, Greifensee, Switzerland), placed in an aluminium hermetic sample pan and sealed with a hermetic lid (TA Instruments, New Castle, Del., USA). The samples were subjected to standard heat/cool/heat at a rate of 10° C./min, under a constant flow of nitrogen at a rate of 50 mL/min. Suitable settings include the following: • For NTX.base API and NTX.base loaded films, the heat/cool/heat cycle was from −80° C. to 200° C. to −80° C. to 200° C. • NTX.HCl API was heated from −80° C. to 285° C., then cooled to −80° C., and then heated for a second time to 285° C. […]
# DSC analysis was performed, in accordance with the method described in the “Assays” part of the present disclosure. […] From the enthalpy of fusion values for NTX.HCl within the films, the saturation solubility of naltrexone hydrochloride within PEO was calculated by plotting enthalpy against drug concentration. […]
# [6] = test system: bacteria, moulds and yeasts; experiment: Stability study: microbiology of patches (Mikrocount duo dipslides); conditions: storage up to 6 months, ambient and accelerated
# Protocol: Mikrocount® duo dipslides (Schulke & Mayr GmbH, Norderstedt, Germany) were used to determine total plate count and to detect presence of moulds and yeasts. The surface of each side of the dipslide was placed in contact with the hydrogel surface of the patch for 5 seconds. The dipslides were then placed in their sealed container and incubated for 72 hours at 27±1° C. Once incubated, the dipslides were compared to images within the Mikrocount® brochure to evaluate the colony forming units per cm^2.
smiles,measurement,setting,value
"O=C1CC[C@@]2(O)[C@H]3Cc4ccc(O)c5c4[C@@]2(CCN3CC2CC2)[C@H]1O5 [naltrexone base, 17-(Cyclopropylmethyl)-4,5α-epoxy-3,14-dihydroxymorphinan-6-one]",pKa,[1],8.3
same,yeasts or moulds,[2]; any incubation time point,No yeasts or moulds were detected
same,bacterial colony count,[2]; solutions,~10^3 CFU/mL
same,microbial growth,[2]; solutions,approximately 10^3 CFU/mL
same,aqueous solubility,[3],510 µg/mL
same,degradation of naltrexone under storage (HPLC chromatograms),[4],did not degrade under storage into any other compounds
O=C1CC[C@@]2(O)[C@H]3Cc4ccc(O)c5c4[C@@]2(CCN3CC2CC2)[C@H]1O5 [naltrexone hydrochloride],bacterial colony count,"[2]; solutions, hydrochloride",approximately 10^2 CFU/mL
same,bacterial growth,"[2]; solutions, after 72 hours",Negligible bacterial growth
same,microbial growth,"[2]; solutions, hydrochloride",approximately 10^2 CFU/mL
same,maximum drug loading before crystals are loaded to the film (saturation solubility within PEO),[5],4.40 % w/w
CC(O)CO (centres unmarked) [propylene glycol],microbial growth on patches,[6],"prevented bacteria, yeast and mould from growing at all throughout the study"
